Measured values as given in a melting point compilation (Tetko et al.; mined from patent text by program, amines drawn as free bases though some values may be those of a salt).

Which melting point does the source give for `CCCCc1nn(-c2cc(N)ccc2Cl)c(C(=O)OCC)c1Cc1ccc(-c2ccccc2S(=O)(=O)NC(=O)c2ccccc2Cl)cc1` here?
Its melting point is greater than 75 °C.

Which melting point does the source give for `CCOC(=O)c1csc(/C=C/c2cn(-c3ccccc3)nc2OCc2ccc(OCc3nc(-c4ccco4)oc3C)c(OC)c2)n1` here?
The melting point was 156 to 157 °C.

With `O=C(NCc1ncco1)c1ccnc(N2CCN(Cc3ccc(F)cc3)C2=O)c1` as the compound, how does the melting point read?
The melting point was 148 to 150 °C.

For `CCc1ccc(Nc2c(C(=O)NOC(CO)CO)ccc(F)c2F)c(F)c1`, which melting point is on record?
The melting point was 91 to 93 °C.

Which melting point does the source give for `Cc1ccc2c(c1)Oc1sc(C)cc1C(N1CCN(C)CC1)=N2` here?
Its melting point is 149 to 150 °C.

For `CCOC(=O)CCN(CC(N)=O)C(=O)Cn1cc(C)c(=O)[nH]c1=O`, which melting point is on record?
The melting point was 207 to 208 °C.

Which melting point does the source give for `CCOCCCOc1ccc(-c2ccc3c(c2)C=C(C(=O)OC)CCN3C(=O)OC(C)(C)C)cc1` here?
Its melting point is 125 to 128 °C.

With `CC1(C)CC(=O)C2=C(C1)NC1=C(C(=O)CC(C)(C)C1)C2c1cccc(-c2ccccc2)c1` as the compound, how does the melting point read?
Its melting point is 227 to 229 °C.

For `CCCCc1nc2c(N)nc3ccccc3c2n1CCCCC(N)=O`, which melting point is on record?
Its melting point is 219 to 221 °C.

For `CCOCCNC(=O)n1cc(F)c(=O)[nH]c1=O`, which melting point is on record?
Its melting point is 134 to 135 °C.

With `C[C@H](CSC(=O)C(C)(C)C)C(=O)N(CC(=O)O)C1CCCC1` as the compound, how does the melting point read?
Its melting point is 155 to 156 °C.

With `O=c1[nH]c(=O)n(C2OC(CO)C(O)C2F)cc1I` (stereo not drawn) as the compound, how does the melting point read?
Its melting point is 216 to 217 °C.

For `CCCN(CC(O)COc1ccc2c(=O)cc(-c3ccccc3)oc2c1)C(=O)OCc1ccccc1` (stereo not drawn), which melting point is on record?
Its melting point is 92 to 94 °C.

Which melting point does the source give for `CN(C)C=Cc1nc2ccc(F)cc2c(=O)n1-c1cccnc1Cl` here?
The melting point was 197 to 200 °C.

For `COC(=O)c1cc(N)c(C#N)s1`, which melting point is on record?
Its melting point is 187 to 189 °C.

For `O=C(CC12CC3CC(CC(C3)C1)C2)Nc1ccc2[nH]ccc2c1`, which melting point is on record?
Its melting point is 184 to 185 °C.

For `CCCCC1(N(C)C)CCC(c2[nH]c3ccc(F)cc3c2C)(c2[nH]c3ccccc3c2C(COC(N)=O)c2ccccc2)CC1` (stereo not drawn), which melting point is on record?
Its melting point is 101 to 105 °C.

Which melting point does the source give for `COC(=S)OCC(COC(=S)OC)OCn1cnc2c(=O)[nH]c(N)nc21` here?
The melting point was 148 to 150 °C.

For `OCCn1c2ccccc2c2c(N3CCCC3)nc(N3CCCC3)nc21`, which melting point is on record?
Its melting point is 110 °C.

With `Nc1sc2c(c1C(=O)c1ccco1)CCC2` as the compound, how does the melting point read?
The melting point was 149 to 153 °C.

With `O=C(O)c1nc2ccccc2n(Cc2ccccc2)c1=O` as the compound, how does the melting point read?
The melting point was 149 to 150 °C.

For `CNc1nc(C(=O)N(C)Cc2cc(C(F)(F)F)cc(C(F)(F)F)c2)c(-c2ccccc2)c2ccccc12`, which melting point is on record?
The melting point was 213 to 214 °C.

For `C=CC[C@@H]1C[C@@H](COc2ccc(CCCCNC(=O)OC(C)(C)C)cc2)N(CCc2ccc3ccccc3c2)C1=O`, which melting point is on record?
The melting point was 79 to 83 °C.

Which melting point does the source give for `Cn1c(CC(=O)O)ccc1C(=O)c1ccc(Cl)cc1Cl` here?
The melting point was 165 to 166 °C.

Which melting point does the source give for `CSc1nn(-c2c(Cl)cc(Cl)cc2Cl)c(N(C)C)c1CO` here?
The melting point was 108 to 110 °C.

For `COc1ccc2ccc(NC(=O)c3cccs3)nc2n1`, which melting point is on record?
Its melting point is 220 °C.

Which melting point does the source give for `O=C1c2ccccc2C(=O)C1c1ccncn1` here?
The melting point was 168 to 169 °C.

With `CCc1coc2c(-c3ccc(S(C)(=O)=O)cc3)c(-c3ccc(F)cc3)nn12` as the compound, how does the melting point read?
The melting point was 205 to 208 °C.

For `CCn1nc(Br)c([N+](=O)[O-])c1Br`, which melting point is on record?
Its melting point is 119 to 121 °C.

For `CN(C)S(=O)(=O)CC(CS(=O)(=O)c1ccc(Oc2ccc(OC(F)(F)F)cc2)cc1)N(O)C=O` (stereo not drawn), which melting point is on record?
Its melting point is 124 to 126 °C.

For `COCc1ccc(S(=O)(=O)N2CCCC2c2ccc(F)cc2)cc1` (racemic), which melting point is on record?
Its melting point is 115 °C.

Which melting point does the source give for `Cc1ccc(Cl)c(-c2ccc(S(=O)(=O)N3c4ccccc4CC3C(=O)NCCOc3ccc(CC(=O)O)cc3)cc2)c1` (stereo not drawn) here?
The melting point was 77 to 81 °C.

For `Cc1cc(OCCc2nc(-c3ccccc3)oc2C)cc(C)c1CN(O)C(N)=O`, which melting point is on record?
The melting point was 170 to 171 °C.

Which melting point does the source give for `Cc1ccc(N2C(=S)SCC2(C)O)nc1` (stereo not drawn) here?
Its melting point is 108 °C.

With `CN(C)CCc1c[nH]c2ccc(CCS(=O)(=O)Nc3ccccc3)cc12` as the compound, how does the melting point read?
The melting point was 144 to 146 °C.

Which melting point does the source give for `O=[N+]([O-])c1ccc(NCc2ccccc2)c(F)c1` here?
Its melting point is 97.5 to 99 °C.

With `CC(C)(C)OC(=O)N1CCN(CC(=O)O)CC1` as the compound, how does the melting point read?
Its melting point is 195 to 197 °C.

For `O=C(O)c1ccc(F)c(C(F)(F)F)c1F`, which melting point is on record?
Its melting point is 108 to 110 °C.
